pIC50: −log10 of the molar value. Read-outs that look alike come from different tables or passages of the source.
How the values were obtained:
Type in all cases: biochemical
[1] = target: T1, porcine pancreatic α-amylase (Sus scrofa, UniProt P00690); assay: Porcine α-amylase inhibition assay (EnzChek Ultra Amylase Assay kit)
T1 sequence (P00690 16-511): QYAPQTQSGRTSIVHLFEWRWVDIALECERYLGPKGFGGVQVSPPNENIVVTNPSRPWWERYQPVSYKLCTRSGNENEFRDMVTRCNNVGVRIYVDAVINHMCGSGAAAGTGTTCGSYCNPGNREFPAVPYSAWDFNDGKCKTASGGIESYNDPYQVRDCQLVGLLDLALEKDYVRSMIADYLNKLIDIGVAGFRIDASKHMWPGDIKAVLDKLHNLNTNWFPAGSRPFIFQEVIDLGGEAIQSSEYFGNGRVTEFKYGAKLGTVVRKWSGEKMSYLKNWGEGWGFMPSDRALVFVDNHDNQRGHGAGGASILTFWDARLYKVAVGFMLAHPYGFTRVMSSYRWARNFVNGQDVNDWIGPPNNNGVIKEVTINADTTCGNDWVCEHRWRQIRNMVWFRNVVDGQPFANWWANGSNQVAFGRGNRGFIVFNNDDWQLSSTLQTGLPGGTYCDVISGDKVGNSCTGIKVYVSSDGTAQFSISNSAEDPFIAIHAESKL
Method: (§1) Bakers yeast α-glucosidase [EC 3.2.1.20], and porcine pancreatic α-amylase [EC 3.2.1.1]were used during bioassay guided fractionation. Rat intestinal acetone powder was used as a source of mammalian α-glucosidase.
(§2) In each bioassay the hydrolysis product was measured using the Victor 2 multi-plate reader (Wallac, Turku, Finland) and all samples were tested in duplicate or triplicate. Non-enzyme controls were subtracted from the enzyme absorbance and the percentage inhibition of test samples was calculated as: […]
:wherein A and B are the absorbance of the hydrolysis product in the absence and presence of inhibitor, respectively. Percent inhibition values were expressed as mean±standard deviation.
Porcine α-Amylase Inhibition Assay
This assay was performed using the EnzChek® Ultra Amylase Assay kit. Samples were dissolved in DMSO and diluted with 100 mM of 3-morpholinopropanesulfonic acid (MOPS) buffer (pH 6.9) to give a final concentration of […], unless otherwise stated.

[2] = target: Bakers yeast α-glucosidase; assay: Yeast α-glucosidase inhibition assay
Method: as §1, with “α-glucosidase. The EnzChek® Ultra Amylase Assay kit (E-33651) was purchased from Molecular Probes (Eugene, Oreg., USA).” for “α-glucosidase.”
as §2
(§3) :wherein A and B are the absorbance of the hydrolysis product in the absence and presence of inhibitor, respectively. Percent inhibition values were expressed as mean±standard deviation. The IC50 was the concentration required for 50% inhibition of enzyme activity under the assay conditions, and values were calculated using a four-parameter fit by Microsoft Excel Solver.
Yeast α-Glucosidase Inhibition Assay
Extracts and fractions were dissolved in DMSO at 30 mg/mL or 10 mM for pure compounds, and diluted to working concentrations in sodium acetate buffer (pH 5.5). Final sample concentrations were 50 μg/mL, unless otherwise stated. The substrate, 4-methylumbelliferyl-α-D-glucopyranoside (84 μM, 45 μL), was added to 96-well plates containing 50 μL yeast α-glucosidase (3 mU/mL) and 5 μL of sample. The plate was mixed on an orbital shaker for 30 seconds and incubated for 20 minutes at 37° C. The reaction was stopped by the addition of 100 mM sodium-glycine buffer (100 μL, pH 10.6) and the plate was shaken for a further 30 seconds and the fluorescence intensity was measured at λex 355 nm, λem 460 nm. Fucoidan (20 μg/mL) was used as a positive inhibitor control, and sodium acetate buffer as a negative control.

[3] = tested on: rat intestinal α-glucosidase; assay: Mammalian α-glucosidase inhibition assay (rat intestinal acetone powder, maltose substrate)
Method: as §1, with “α-glucosidase. The EnzChek® Ultra Amylase Assay kit (E-33651) was purchased from Molecular Probes (Eugene, Oreg., USA).” for “α-glucosidase.”
as §2, §3
Mammalian α-Glucosidase Inhibition Assay
The α-glucosidase inhibitory activity of pure compounds was measured as described previously, with some modifications. The crude enzyme solution was prepared by suspending 50 mg of rat intestinal acetone powder in 0.9% sodium chloride solution (1.5 mL). The mixture was homogenised by sonication in ice-cold water for 10 minutes and then centrifuged at 10,000 g for 30 minutes. The resulting supernatant was used in the assay.
The substrate maltose (3 mM, 20 μL) was added to 96-well plates containing the crude α-glucosidase mixture (20 μL) and sample (10 μL). The microtitre plate was mixed on an orbital shaker for 30 seconds, incubated for 30 minutes at 37° C. and the reaction was stopped by the addition of 2 M Tris buffer (75 μL ). The glucose liberated was measured by adding 30 μL of the reaction mixture to the Glucose Hexokinase assay reagent (170 μL), which was mixed and incubated for 15 minutes at room temperature. The fluorescence of the mixture was measured at λex 340 nm, λem 470 nm.

[4] = porcine α-amylase, read-out: Amylase (porcine) IC50

Row | Molecule | pIC50 [1, 4] | activity against porcine α-amylase, fold greater than acarbose ([1]; relative to acarbose) | pIC50 [2] | Glucosidase (rat) % Inhibition at 200 μM ([3]; 200 µM) | Glucosidase (rat) % Inhibition at 200 μM [3] | Glucosidase (yeast) IC50 ([2]; unit given in the name cell for fucoidan) | pIC50 ([1]; Amylase (porcine) IC50, porcine α-amylase)
1 | COc1cc(C(O)C(COC(=O)C=Cc2ccc(O)cc2)Oc2c(OC)cc(-c3cc(=O)c4c(O)cc(O)cc4o3)cc2OC)ccc1O (stereo not drawn) [Compound 8, tricin-4′-O-[threo-β-guaiacyl-(9″-O-p-coumaroyl)-glyceryl]ether] | 6.05 | 130 fold | 4.42 | 10.0% | – | – | –
2 | O=c1cc(-c2ccc(O)cc2)oc2cc(O)cc(O)c12 [Compound 18, Apigenin, reference compound] | – | – | 3.96 | – | −12.2% | – | –
3 | COc1cc(C(OC)C(CO)Oc2c(OC)cc(-c3cc(=O)c4c(O)cc(O)cc4o3)cc2OC)ccc1O (stereo not drawn) [Compound 5, tricin-4′-O-[threo-β-guaiacyl-(7″-O-methyl)-glyceryl]ether] | 4.50 | – | 4.02 | – | 6.1% | – | –
4 | COc1cc(C(O)C(COC(=O)C=Cc2ccc(O)cc2)Oc2c(OC)cc(-c3cc(=O)c4c(O)cc(O)cc4o3)cc2OC)ccc1O (stereo not drawn) [Compound 7, tricin-4′-O-[erythro-β-guaiacyl-(9″-O-p-coumaroyl)-glyceryl]ether] | 5.70 | – | 4.43 | 25.7% | – | – | –
5 | Fucoidan [reference compound] | – | – | – | – | – | 0.82 µg/mL | –
6 | COc1cc(C(OC)C(CO)Oc2c(OC)cc(-c3cc(=O)c4c(O)cc(O)cc4o3)cc2OC)ccc1O (stereo not drawn) [Compound 6, tricin-4′-O-[erythro-β-guaiacyl-(7″-O-methyl)-glyceryl]ether] | 4.58 | – | 4.14 | – | 6.1% | – | –
7 | O=c1cc(-c2ccc(O)c(O)c2)oc2cc(O)cc(O)c12 [Compound 19, Luteolin, reference compound] | 4.00 | – | 4.03 | – | 4.8% | – | –
8 | COc1cc(-c2cc(=O)c3c(O)cc(O)cc3o2)cc(OC)c1O [Compound 4, Tricin, reference compound] | – | – | 4.15 | – | 16.1% | – | 3.98

From patent publication US20120115941A1, “Compounds Affecting Glycemic Index” (SACRON INNOVATIONS PTY LIMITED, priority 2009, published 2012)
